This passage reports Activity, Drug uptake and IC50 results from ChEMBL document CHEMBL5390250, “Synthesis and biological evaluation of bi-modal BODIPY-conjugated Hoechst applicable for Auger-electron and photodynamic cancer therapy” (Bioorg Med Chem Lett, 2023).

Series [1] relates to HeLa. Description: Antiproliferative activity against human HeLa cells assessed as auger electron mediated reduction in cell viability at 18.5 kBq measured after 6 hrs by MTT assay relative to control. It is filed as functional.
Series [2] can be described thus: Drug uptake in nucleus of human HeLa cells measured upto 6 hrs. Format: ADME, subcellular.
The nature of series [3]: Drug uptake in human HeLa cells assessed as increase in intracellular fraction measured upto 6 hrs. Format: ADME, cell-based.
Series [4] in a line: Induction of singlet oxygen production in MeOH assessed as singlet oxygen quantum yield at 410 nm by DPBF based assay. It is filed as functional.
The subject of series [5] is HeLa. Nature of the series: Photocytotoxicity against human HeLa cells assessed as reduction in cell viability at 1600 nM preincubated for 24 hrs followed by light irradiation at 525 nm for 6 mins by MTT assay relative to control. Format: functional. In general terms: Tetrazolium dyes change colour on reduction, which living cells bring about.
Series [6] can be described thus: Fluorescence property of compound in MeOH assessed as molar extinction coefficient. Format: physicochemical.
A short description of series [7]: Emission property of compound in MeOH assessed as maximal wavelength. Format: physicochemical.
Series [8] can be described thus: Absorption property of compound in MeOH assessed as maximal wavelength. Format: physicochemical.
In series [9] the test system is HeLa. Nature of the series: Photocytotoxicity against human HeLa cells assessed as reduction in cell viability upto 1600 nM measured after 24 hrs under dark condition by MTT assay. Format: functional, cell-based.
Series [10] deals with HeLa. Nature of the series: Antiproliferative activity against human HeLa cells assessed as auger electron mediated reduction in cell viability measured after 6 hrs by MTT assay. Format: functional, cell-based. As to conditions: dose <= 18.5 kBq, tested as the 125I-labelled form.
Series [11] has as its system HeLa. Description: Induction of DNA damage in human HeLa cells assessed as increase in gamma H2AX foci density in nucleus measured after 2 hrs by immmunofluorescence staining based analysis. As to conditions: dose <= 18.5 kBq, tested as the 125I-labelled form. Format: functional, cell-based.
Series [12] concerns HeLa. Description: Induction of DNA damage in human HeLa cells assessed as increase in gamma H2AX foci in nuclei at 18.5 kBq measured after 2 hrs by immmunofluorescence staining based analysis. As to conditions: tested as the 125I-labelled form. Format: functional, cell-based.
Series [13] is described as follows: Fluorescence property of compound in MeOH assessed as quantum yield by spectroscopic analysis. It is filed as physicochemical.
For series [14], the system named is HeLa. Nature of the series: Photocytotoxicity against human HeLa cells assessed as reduction in cell viability preincubated for 24 hrs followed by light irradiation at 525 nm for 6 mins by MTT assay. Format: functional, cell-based. As to conditions: for Activity: dose <= 1600.0 nM, time 1446.0 min; for IC50: light or radiation study.
A short description of series [15]: Emission property of compound in MeOH assessed as maximal wavelength by spectroscopic analysis. It is filed as physicochemical.
The nature of series [16]: Fluorescence property of compound in MeOH assessed as molar extinction coefficient by spectroscopic analysis. Format: physicochemical.
The subject of series [17] is HeLa. Description: Antiproliferative activity against human HeLa cells assessed as reduction in cell viability measured after 6 hrs by MTT assay. It is filed as functional, cell-based.
Series [18] can be described thus: Absorption property of compound in MeOH assessed as maximal wavelength by spectroscopic analysis. It is filed as physicochemical.
Series [19] in a line: Induction of singlet oxygen production in MeOH assessed as singlet oxygen quantum yield. It is filed as functional.
Series [20] can be described thus: Fluorescence property of compound in toluene assessed as quantum yield. Format: physicochemical.

Calls of active or inactive are those of the source. The rule behind the calls is not given here.

With `CC1=C([125I])C(C)=[N+]2C1=C(c1ccc(C(=O)NCCCCOc3ccc(-c4nc5ccc(-c6nc7ccc(N8CCN(C)CC8)cc7[nH]6)cc5[nH]4)cc3)cc1)c1c(C)cc(C)n1[B-]2(F)F`, the Activity with HeLa [1] was determined as 60%. The Drug uptake entry in [2] and in series [3] was “Active” each time.

Turning to `CC1=C(I)C(C)=[N+]2C1=C(c1ccc(C(=O)NCCCCOc3ccc(-c4nc5ccc(-c6nc7ccc(N8CCN(C)CC8)cc7[nH]6)cc5[nH]4)cc3)cc1)c1c(C)cc(C)n1[B-]2(F)F`, the Activity in series [4] is 0.32; in the series with HeLa [5] it was 50%; in series [6], 22000 M⁻¹ cm⁻¹; in series [7] it was 532 nm; in series [8], 517 nm; in the series on HeLa [10], “Dose-Dependent Effect”. In addition, the Activity entry in the series on HeLa [11] is “Dose-Dependent Effect”; in series [13], 0.06; in the series on HeLa [14], “Dose-Dependent Effect”. For the same compound, in the series with HeLa [9], the result was inactive. Moreover, the result with HeLa [12] was Active. Besides, in the series with HeLa [14], the IC50 was 702 nM.

As to `CC1=C([125I])C(C)=[N+]2C1=C(c1ccc(C(=O)NCCCCOc3ccc(-c4nc5ccc(-c6nc7ccc(N8CCN(C)CC8)cc7[nH]6)cc5[nH]4)cc3)cc1)c1c(C)c(I)c(C)n1[B-]2(F)F`, in the series on HeLa [1], the Activity was found to be 43%. For the same compound, the Drug uptake result in series [2] and in series [3] was “Active” throughout.

`CC1=C(I)C(C)=[N+]2C1=C(c1ccc(C(=O)NCCCCOc3ccc(-c4nc5ccc(-c6nc7ccc(N8CCN(C)CC8)cc7[nH]6)cc5[nH]4)cc3)cc1)c1c(C)c(I)c(C)n1[B-]2(F)F`: the Activity in series [4] was 0.41; with HeLa [5], 29%; in [15], 552 nm; in the series with HeLa [10], “Dose-Dependent Effect”; in series [16], 20600 M⁻¹ cm⁻¹; with HeLa [11], “Dose-Dependent Effect”. The Activity was 0.04 in series [13], 533 nm in series [18] and “Dose-Dependent Effect” in the series with HeLa [14]. Besides, the outcome with HeLa [9] and in the series on HeLa [17] was inactive. The outcome in the series with HeLa [12] was Active. In addition, the IC50 in the series with HeLa [14] was 195 nM.

As to `O=C(O)c1c(Cl)c(Cl)c(Cl)c(Cl)c1-c1c2cc(I)c(=O)c(I)c-2oc2c(I)c(O)c(I)cc12`, the Activity in [19] was determined as 0.76.

As to `CC1=C(I)C(C)=[N+]2C1=C(c1ccc(C(=O)ON3C(=O)CCC3=O)cc1)c1c(C)cc(C)n1[B-]2(F)F`, the Activity in series [20] worked out at 0.11.

Turning to `CN(C)c1ccc2cc3ccc(N(C)C)cc3[n+](CCCCCNC(=O)c3ccc(I)cc3)c2c1`, the Activity entry in the series with HeLa [10] is “Dose-Dependent Effect”.

For `CN(C)c1ccc2cc3ccc(N(C)C)cc3[n+](CCCCCNC(=O)c3ccc([125I])cc3)c2c1`, in the series with HeLa [1], the Activity is given as 64%.

Broadly, the IC50 is the concentration that gives 50% inhibition.
